Source: ChEMBL document CHEMBL1142033, “Synthesis of isonicotinic acid N'-arylidene-N-[2-oxo-2-(4-aryl-piperazin-1-yl)-ethyl]-hydrazides as antituberculosis agents” (2005)
In brackets after ≈: the same amount, converted by molar mass.

Key:
Assay type in all cases: functional
[1] = tested on: Mycobacterium tuberculosis; test: Minimum inhibitory concentration against resistant Mycobacterium tuberculosis clinical isolates; N=9
[2] = tested on: Mycobacterium tuberculosis; test: Minimum inhibitory concentration against resistant Mycobacterium tuberculosis clinical isolates; N=9; Range 2-4
[3] = tested on: Mycobacterium tuberculosis; test: Minimum inhibitory concentration against resistant Mycobacterium tuberculosis clinical isolates; N=9; range=4-8
[4] = tested on: Mycobacterium tuberculosis; test: Minimum inhibitory concentration against resistant Mycobacterium tuberculosis clinical isolates; N=9; range=8-16
[5] = tested on: Mycobacterium tuberculosis; test: Minimum inhibitory concentration against resistant Mycobacterium tuberculosis clinical isolates; N=9; Range=8-16
[6] = tested on: Mycobacterium tuberculosis; test: Minimum inhibitory concentration against resistant Mycobacterium tuberculosis clinical isolates; N=9; Range=2-16

Row | Structure (SMILES) | MIC [1] [µg/mL] | other results
1 | O=C(CN(/N=C/c1ccccc1Cl)C(=O)c1ccncc1)N1CCN(c2ccc(F)cc2)CC1 | > 16 | –
2 | O=C(CN(/N=C/c1cccc(Cl)c1)C(=O)c1ccncc1)N1CCN(c2ccc([N+](=O)[O-])cc2)CC1 | > 16 | –
3 | O=C(CN(/N=C/c1ccc(Cl)cc1Cl)C(=O)c1ccncc1)N1CCN(c2ccc(Cl)cc2)CC1 | 16 (≈ 30.1 µM) | –
4 | O=C(CN(/N=C/c1ccc(Cl)cc1Cl)C(=O)c1ccncc1)N1CCN(c2ccc(F)cc2)CC1 | > 16 | –
5 | O=C(CN(/N=C/c1cccc(Cl)c1)C(=O)c1ccncc1)N1CCN(c2ccc(Cl)cc2)CC1 | > 16 | –
6 | COc1ccccc1N1CCN(C(=O)CN(/N=C/c2ccc(Cl)cc2)C(=O)c2ccncc2)CC1 | > 16 | –
7 | COc1ccccc1N1CCN(C(=O)CN(/N=C/c2ccccc2Cl)C(=O)c2ccncc2)CC1 | > 16 | –
8 | O=C(CN(/N=C/c1ccc(Cl)cc1)C(=O)c1ccncc1)N1CCN(c2ccc(Cl)cc2)CC1 | > 16 | –
9 | O=C(CN(/N=C/c1ccc(Cl)cc1Cl)C(=O)c1ccncc1)N1CCN(c2cccc(C(F)(F)F)c2)CC1 | > 16 | –
10 | O=C(CN(/N=C/c1ccccc1Cl)C(=O)c1ccncc1)N1CCN(c2ccccc2)CC1 | > 16 | –
11 | O=C(CN(/N=C/c1ccccc1Cl)C(=O)c1ccncc1)N1CCN(c2ccc([N+](=O)[O-])cc2)CC1 | > 16 | –
12 | Cc1cccc(N2CCN(C(=O)CN(/N=C/c3ccc(Cl)cc3Cl)C(=O)c3ccncc3)CC2)c1 | > 16 | –
13 | O=C(CN(/N=C/c1ccccc1Cl)C(=O)c1ccncc1)N1CCN(c2cccc(Cl)c2)CC1 | > 16 | –
14 | Cc1cccc(N2CCN(C(=O)CN(/N=C/c3ccccc3Cl)C(=O)c3ccncc3)CC2)c1 | > 16 | –
15 | O=C(CN(/N=C/c1ccc(Cl)cc1)C(=O)c1ccncc1)N1CCN(c2ccc(F)cc2)CC1 | > 16 | –
16 | COc1ccccc1N1CCN(C(=O)CN(/N=C/c2cccc(Cl)c2)C(=O)c2ccncc2)CC1 | > 16 | –
17 | O=C(CN(/N=C/c1ccccc1Cl)C(=O)c1ccncc1)N1CCN(c2cccc(C(F)(F)F)c2)CC1 | > 16 | –

Row | Structure (SMILES) | MIC [1] [µg/mL] | other results
18 | O=C(CN(/N=C/c1ccc(Cl)cc1Cl)C(=O)c1ccncc1)N1CCN(c2cccc(Cl)c2)CC1 | > 16 | –
19 | O=C(CN(/N=C/c1cccc(Cl)c1)C(=O)c1ccncc1)N1CCN(c2ccc(F)cc2)CC1 | > 16 | –
20 | O=C(CN(/N=C/c1cccc(Cl)c1)C(=O)c1ccncc1)N1CCN(c2cccc(Cl)c2)CC1 | > 16 | –
21 | O=C(CN(/N=C/c1ccc(Cl)cc1)C(=O)c1ccncc1)N1CCN(c2ccc([N+](=O)[O-])cc2)CC1 | > 16 | –
22 | COc1ccccc1N1CCN(C(=O)CN(/N=C/c2ccc(Cl)cc2Cl)C(=O)c2ccncc2)CC1 | > 16 | –
23 | O=C(CN(/N=C/c1ccccc1Cl)C(=O)c1ccncc1)N1CCN(c2ccc(Cl)cc2)CC1 | > 16 | –
24 | O=C(CN(/N=C/c1ccc(Cl)cc1Cl)C(=O)c1ccncc1)N1CCN(Cc2ccc3c(c2)OCO3)CC1 | – | MIC [2]: 4 µg/mL (≈ 7.21 µM)
25 | O=C(CN(/N=C/c1ccc(Cl)cc1Cl)C(=O)c1ccncc1)N1CCN(c2ccc([N+](=O)[O-])cc2)CC1 | > 16 | –
26 | O=C(CN(/N=C/c1cccc(Cl)c1)C(=O)c1ccncc1)N1CCN(Cc2ccc3c(c2)OCO3)CC1 | – | MIC [3]: 8 µg/mL (≈ 15.4 µM)
27 | O=C(CN(/N=C/c1ccc(Cl)cc1Cl)C(=O)c1ccncc1)N1CCN(c2ccccc2)CC1 | > 16 | –
28 | O=C(CN(/N=C/c1ccccc1Cl)C(=O)c1ccncc1)N1CCN(Cc2ccc3c(c2)OCO3)CC1 | – | MIC [4]: 16 µg/mL (≈ 30.8 µM)
29 | Cc1cccc(N2CCN(C(=O)CN(/N=C/c3cccc(Cl)c3)C(=O)c3ccncc3)CC2)c1 | > 16 | –
30 | O=C(CN(/N=C/c1ccc(Cl)cc1)C(=O)c1ccncc1)N1CCN(Cc2ccc3c(c2)OCO3)CC1 | – | MIC [3]: 8 µg/mL (≈ 15.4 µM)
31 | O=C(CN(/N=C/c1ccccc1Cl)C(=O)c1ccncc1)N1CCN(c2cccc(Cl)c2Cl)CC1 | > 16 | –
32 | O=C(CN(/N=C/c1cccc(Cl)c1)C(=O)c1ccncc1)N1CCN(c2ccccc2)CC1 | > 16 | –
33 | NNC(=O)c1ccncc1 [ISONIAZID] | – | MIC [5]: 16 µg/mL (≈ 117 µM)
34 | CO[C@H]1/C=C/O[C@@]2(C)Oc3c(C)c(O)c4c(O)c(c(/C=N/N5CCN(C)CC5)c(O)c4c3C2=O)NC(=O)/C(C)=C\C=C\[C@H](C)[C@H](O)[C@@H](C)[C@@H](O)[C@@H](C)[C@H](OC(C)=O)[C@@H]1C [RIFAMPIN] | – | MIC [6]: 16 µg/mL (≈ 19.4 µM)
